Consider four molecules from US20030211547A1 (priority 2002, published 2003).

Like-named read-outs stand apart in the source and are kept apart here.

In assay [1] the test system is C. elegans. Briefly: Aldicarb sensitivity (paralysis) of C. elegans. It counts as in vivo. The source says: (§1) Based on studies of other known mutants in C. elegans, hypersensitivity to aldicarb may indicate an increase in synaptic transmission of acetylcholine compared with wild-type animals.
In assay [2] the test system is C. elegans. The source says: The F2 population was screened to identify animals that were homozygous for recessive mutations or heterozygous for dominant mutations that alter sensitivity to the effects of ethanol on locomotion. Wild-type C. elegans normally move with a sinusoid pattern of locomotion, but when exposed to high concentrations of ethanol, they display extreme, reversible (after the removal of ethanol) uncoordination and paralysis. Animals that are resistant to the effects of ethanol display the sinusoid pattern of locomotion even in the presence of high concentrations of ethanol. To identify the mutants, animals of the F2 generation were washed from their plates into 1.5 ml tubes, rinsed free of bacteria and incubated in a solution of 400 mM ethanol for 30-50 min. The worms were then transferred to the center of 100 mm petri plates that held media containing 400 mM ethanol and a circle of E. coli (OP50) bacteria on the periphery of the media. […] Animals that moved to the bacteria quickly and with a wild-type pattern of locomotion were identified as ethanol-resistant candidates.
The slo-1 gene is expressed in most, if not all neurons, and in body wall muscle but not in pharyngeal muscle. […] BK4.1 has the slo-1 cdNA fused with the promoter from the C. elegans body muscle myosin (myo-3) gene, which is expressed exclusively in body muscle. We transformed animals homozygous for a known null mutation of slo-1(js118) with each of these DNA constructs separately where the concentration of the BK3.1 or BK4.1 constructs was 20 ng/μ1 in the injection solution. So that we could identify transformed progeny of the injected animals we coinjected a DNA construct that expresses the green fluorescent protein (GFP) in neurons with BK3.1 and a construct that expresses GFP in body muscle with BK4.1. In this way we could examine the progeny of the injected animals under a UV microscope and any animals showing GFP fluorescence have been transformed with the injected DNA. If transformed animals are picked to individual plates and their progeny examined for the presence of GFP, only the animals that are germ-line transformants will have progeny expressing GFP.
(§2) To rule out the possibility of hyperactivity contributing to the resistance seen in slo-1, we compared the level of resistance caused by mutations in slo-1 with the resistance induced by mutations in other regulators of neuron activity including loss-of-function mutations in dgk-1 and goa-1 and a gain-of-function mutation in egl-30. Each of these mutants appears phenotypically hyperactive with increased amplitude of body bends and hyperactive egg laying. […] When SLO-1 is absent the ethanol […] in the nervous system and its effects are greatly minimized.

The subject of assay [3] is C. elegans.
Source text: These mutants were examined for the effect of ethanol on two behaviors other than locomotion: egg laying and pharyngeal pumping. […] Unlike wild-type worms, the egg-laying behavior of BZ6, BZ7 and BZ73 worms was unaffected by high doses of ethanol.
as §2
The source holds these as a separate data set.

Assay [4] has as its system C. elegans.
Source text: as §1
This is another data set of the same source.

Another assay deals with BK channels (Homo sapiens, UniProt Q12791). As to conditions: cited from earlier work.
BK channels, sequence (Q12791 whole entry): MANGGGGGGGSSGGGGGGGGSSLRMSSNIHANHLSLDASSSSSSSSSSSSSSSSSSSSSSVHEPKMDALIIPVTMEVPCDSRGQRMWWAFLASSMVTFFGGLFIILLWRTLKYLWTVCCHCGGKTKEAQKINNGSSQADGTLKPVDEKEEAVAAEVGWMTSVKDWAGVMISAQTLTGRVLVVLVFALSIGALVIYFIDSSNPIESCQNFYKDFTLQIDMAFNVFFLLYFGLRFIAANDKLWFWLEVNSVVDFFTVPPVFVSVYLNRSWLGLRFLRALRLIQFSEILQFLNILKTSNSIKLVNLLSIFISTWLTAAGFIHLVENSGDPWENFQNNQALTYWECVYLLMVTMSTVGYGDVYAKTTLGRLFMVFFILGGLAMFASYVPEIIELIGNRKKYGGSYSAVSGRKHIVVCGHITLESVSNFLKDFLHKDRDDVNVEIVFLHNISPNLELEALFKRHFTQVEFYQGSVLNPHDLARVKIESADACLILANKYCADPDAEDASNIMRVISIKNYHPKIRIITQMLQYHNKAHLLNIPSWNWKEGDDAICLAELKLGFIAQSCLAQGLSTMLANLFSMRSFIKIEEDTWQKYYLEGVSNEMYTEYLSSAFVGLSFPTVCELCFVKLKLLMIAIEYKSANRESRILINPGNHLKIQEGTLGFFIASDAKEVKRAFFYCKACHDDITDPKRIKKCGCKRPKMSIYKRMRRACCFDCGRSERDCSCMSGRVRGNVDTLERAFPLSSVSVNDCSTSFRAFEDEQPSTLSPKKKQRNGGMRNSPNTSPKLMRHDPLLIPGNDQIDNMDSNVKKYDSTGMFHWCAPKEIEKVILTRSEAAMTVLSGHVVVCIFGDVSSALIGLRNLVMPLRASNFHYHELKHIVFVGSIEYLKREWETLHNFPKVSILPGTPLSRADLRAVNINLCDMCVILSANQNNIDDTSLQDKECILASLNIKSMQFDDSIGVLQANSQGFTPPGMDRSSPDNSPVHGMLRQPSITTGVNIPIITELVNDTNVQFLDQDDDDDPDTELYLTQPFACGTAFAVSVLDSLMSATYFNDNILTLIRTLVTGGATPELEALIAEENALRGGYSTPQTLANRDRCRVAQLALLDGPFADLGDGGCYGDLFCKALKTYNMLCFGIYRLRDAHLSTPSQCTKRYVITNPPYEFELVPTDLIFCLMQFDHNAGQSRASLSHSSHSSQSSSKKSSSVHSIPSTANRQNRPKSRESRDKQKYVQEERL

Consider `CNC(=O)O/N=C/C(C)(C)SC` [aldicarb], for which, in the assay with C. elegans [1] (ethanol-resistant mutants (BZ6, BZ7, BZ8, BZ73)), the “concentrations of aldicarb at which paralysis is displayed” value fell in the range of 0.1 to 0.25 mM. Besides, the effect of aldicarb result with C. elegans [1] (wild-type animals, 0.1-0.25 mM) is on record as “only mildly affect”.
As for `CCO` [ethanol], the decrease in speed is 40% with C. elegans [2] (dgk-1(sy428)); 40% in the assay with C. elegans [2] (egl-30(js126gf)); 70% with C. elegans [2] (slo-1(js118) animals carrying a BK3.1 transgene (SLO-1 only in neurons)); “little or no decrease in speed” with C. elegans [2] (slo-1(js118) animals carrying a BK4.1 transgene (SLO-1 only in body muscle)); “no decrease in speed” in the assay with C. elegans [2] (slo-1(js118) animals, intoxicating doses of ethanol); “no decrease in speed” in the assay on C. elegans [2] (three slo-1 mutations js118, eg6 and eg73, ethanol dose giving 60% decrease in wild-type). In addition, the decrease in speed with C. elegans [2] (wild-type animals, intoxicating doses of ethanol) came out at 60%. Further, the effect on locomotion entry with C. elegans [2] (wild-type animals, 400 mM ethanol) was “severe uncoordination and lethargy”. Besides, the effect on egg-laying result with C. elegans [3] (BZ6, BZ7 and BZ73 worms, high doses of ethanol) is “unaffected”; in the assay on C. elegans [3] (BZ6, BZ7 and BZ73 worms, low doses (e.g. 50-100 mM exogenous concentration)), “lay more eggs than wild-type worms”; in the assay with C. elegans [3] (BZ8, high doses of ethanol), “did not display this ethanol-resistance”; in the assay on C. elegans [3] (wild-type C. elegans, high doses (e.g. 400 mM exogenous concentration)), “almost completely suppress egg-laying”. Also, the “decrease in egg laying” value in the assay on C. elegans [3] (egl-30(js126)) is given as 72%; in the assay with C. elegans [3] (goa-1(n1134)), 80%; in the assay on C. elegans [3] (slo-1(eg24)), 12%; in the assay on C. elegans [3] (wild-type strain), 96%. Besides, in the assay on C. elegans [3] (slo-1(eg142)), the “decrease in egg laying rate” value was “no decrease in egg laying rate”.
Take `c1ccc([C@H]2CN3CCSC3=N2)cc1` [levamisole]: the response to levamisole entry with C. elegans [4] (BZ6, BZ7 and BZ73, 60-100 μM) is given as “wild-type response”; with C. elegans [4] (BZ8) it was “hypersensitive”.
“Iberiotoxin (QFTDVDCSVSKECWSVCKDLFGVDRGKCMGKKCRCYQ; UniProt P24663 1-37, looked up)”: the “effective concentration as blocker of BK channels” value in the assay with BK channels was “about 10 nM”.
